Assay results taken from patent US20240158348A1, “HERBICIDAL CYCLIC AMIDES N-SUBSTITUTED WITH A HALOALKYLSULFONYLANILIDE GROUP” (FMC Corporation, priority 2021, published 2024).

Key:
Format in all cases: in vivo
[1] = test system: foxtail, giant (giant foxtail, Setaria faberi); experiment: Test C preemergence, giant foxtail; conditions: 0 is no effect, 100 is complete control
Outline: (§1)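 Plants grown in a sand and loam soil blend received the formulated test chemicals either as a preemergence soil-directed spray or postemergence at 2 to 10 cm height. After 10 or 12 greenhouse days, injury was assessed visually, with 100 meaning complete control.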

[2] = test system: kochia (Bassia scoparia); experiment: Test C preemergence, kochia; conditions: 0 is no effect, 100 is complete control
Outline: as §1

[3] = test system: oat, wild (wild oat, Avena fatua); experiment: Test C postemergence, wild oat; conditions: for Oat, Wild plant response rating: 31 g ai/ha Postemergence, visual injury, 0 to 100 scale (0 no effect, 100 complete control); for Plant response rating (0 to 100 scale), Oat, Wild: 125 g ai/ha Postemergence, 0 is no effect, 100 is complete control
[4] = test system: pigweed, palmer (palmer amaranth, Amaranthus palmeri); experiment: Test C postemergence, palmer amaranth; conditions: for Pigweed, Palmer plant response rating: visual injury, 0 to 100 scale (0 no effect, 100 complete control); for Plant response rating (0 to 100 scale), Pigweed, Palmer: 0 is no effect, 100 is complete control
Outline: as §1

[5] = test system: ragweed (common ragweed, Ambrosia artemisiifolia); experiment: Test C postemergence, ragweed; conditions: for Ragweed plant response rating: visual injury, 0 to 100 scale (0 no effect, 100 complete control); for Plant response rating (0 to 100 scale), Ragweed: 0 is no effect, 100 is complete control
Outline: as §1

[6] = test system: soybean (Glycine max); experiment: Test C postemergence, soybean; conditions: for Soybean plant response rating: visual injury, 0 to 100 scale (0 no effect, 100 complete control); for Plant response rating (0 to 100 scale), Soybean: 0 is no effect, 100 is complete control
[7] = test system: barnyardgrass (Echinochloa crusgalli); experiment: Test D flooded paddy test, barnyardgrass; set-up: key: 0 = no effect, 100 = complete control; conditions: 250 g ai/ha, Flood; applied to paddy water at 2-leaf stage; visual rating after 13 days; scale 0 (no effect) to 100 (complete control)
Outline: (§2)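 2-leaf plants; flood 3 cm over soil; cpd into paddy water; depth maintained; greenhouse 13 d; visual rating vs controls, 0 = no effect, 100 = complete control; dash = no result.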

[8] = test system: rice (Oryza sativa); experiment: Test D flooded paddy test, rice; set-up: key: 0 = no effect, 100 = complete control; conditions: 250 g ai/ha, Flood; applied to paddy water at 2-leaf stage; visual rating after 13 days; scale 0 (no effect) to 100 (complete control)
Outline: as §2

[9] = test system: sedge, umbrella (small-flower umbrella sedge, Cyperus difformis); experiment: Test D flooded paddy test, umbrella sedge; set-up: key: 0 = no effect, 100 = complete control; conditions: 250 g ai/ha, Flood; applied to paddy water at 2-leaf stage; visual rating after 13 days; scale 0 (no effect) to 100 (complete control)
Outline: as §2

| SMILES | Plant response rating (0 to 100 scale), Foxtail, Giant ([1]; 31 g ai/ha Preemergence) | Plant response rating (0 to 100 scale), Foxtail, Giant ([1]; 125 g ai/ha Preemergence) | Plant response rating (0 to 100 scale), Kochia ([2]; 31 g ai/ha Preemergence) | Plant response rating (0 to 100 scale), Kochia ([2]; 125 g ai/ha Preemergence) | Oat, Wild plant response rating [3] | Plant response rating (0 to 100 scale), Oat, Wild [3] | Pigweed, Palmer plant response rating ([4]; 31 g ai/ha Postemergence) | Pigweed, Palmer plant response rating ([4]; 125 g ai/ha Postemergence) | Ragweed plant response rating ([5]; 31 g ai/ha Postemergence) | Ragweed plant response rating ([5]; 125 g ai/ha Postemergence) | Soybean plant response rating ([6]; 31 g ai/ha Postemergence) | Soybean plant response rating ([6]; 125 g ai/ha Postemergence) | Plant response rating, Barnyardgrass [7] | Plant response rating, Rice [8] | Plant response rating, Sedge, Umbrella [9] | Plant response rating (0 to 100 scale), Pigweed, Palmer ([4]; 125 g ai/ha Postemergence) | Plant response rating (0 to 100 scale), Ragweed ([5]; 125 g ai/ha Postemergence) | Plant response rating (0 to 100 scale), Soybean ([6]; 125 g ai/ha Postemergence) |
| --- | --- | --- | --- | --- | --- | --- | --- | --- | --- | --- | --- | --- | --- | --- | --- | --- | --- | --- |
| Cc1cc(C)c(N2CCC(OC3CC3)C2=O)cc1NS(=O)(=O)C(F)(F)F (single isomer, unassigned) [Compound 29] | 90 | 100 | 90 | 100 | 20 | 80 | 60 | 90 | 60 | 80 | 60 | 100 | 95 | 85 | 95 | – | – | – |
| Cc1cc(C)c(N2CCC(OC3CC3)C2=O)cc1NS(=O)(=O)C(F)(F)F (single isomer, unassigned) [Compound 30] | 100 | 100 | 90 | 100 | 50 | 80 | 60 | 90 | 90 | 90 | 50 | 60 | 95 | 75 | 98 | – | – | – |
| CO/N=C1\CCN(c2cc(NS(=O)(=O)C(F)(F)F)c(C)cc2C)C1=O [Compound 9, 1,1,1-trifluoro-N-[5-[3-(methoxyimino)-2-oxo-1-pyrrolidinyl]-2,4-dimethylphenyl]methanesulfonamide] | 100 | 100 | 100 | 100 | 80 | 80 | 70 | – | 70 | – | 80 | – | 10 | 30 | 85 | 90 | 80 | 80 |
| Cc1cc(C)c(N2CC/C(=N\O)C2=O)cc1NS(=O)(=O)C(F)(F)F [Compound 10, 1,1,1-trifluoro-N-[5-[3-(hydroxyimino)-2-oxo-1-pyrrolidinyl]-2,4-dimethylphenyl]methanesulfonamide] | 90 | 100 | 90 | 100 | 80 | 80 | 60 | – | 50 | – | 80 | – | 0 | 0 | 80 | 90 | 50 | 80 |
| C=CCO/N=C1\CCN(c2cc(NS(=O)(=O)C(F)(F)F)c(C)cc2C)C1=O [Compound 11] | 100 | 100 | 80 | 100 | – | – | 40 | – | 60 | – | 100 | – | 25 | 45 | 100 | 90 | 80 | 100 |
| CCO/N=C1\CCN(c2cc(NS(=O)(=O)C(F)(F)F)c(C)cc2C)C1=O [Compound 12, N-[5-[3-(ethoxyimino)-2-oxo-1-pyrrolidinyl]-2,4-dimethylphenyl]-1,1,1-trifluoromethanesulfonamide] | 100 | 100 | 100 | 100 | 90 | 90 | 80 | – | 90 | – | 100 | – | 0 | 40 | 100 | 100 | 90 | 100 |
